In PubChem BioAssay (NCI):
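How tested: cells in 96-well plates exposed to compound for 48 hours at five concentrations. GI50 = concentration required for 50% inhibition of growth. TGI is the concentration that stops growth completely.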

Columns and labels:
Assay in all cases: inhibition of tumour cell growth, NCI panel, 48 h
[1] = tested on: CCRF-CEM leukemia
[2] = tested on: SK-MEL-2 melanoma
[3] = tested on: NCI-H460 lung
[4] = tested on: NCI-H23 lung
[5] = tested on: CAKI-1 renal
[6] = tested on: U251 CNS
[7] = tested on: K-562 leukemia
[8] = tested on: NCI/ADR-RES ovarian
[9] = tested on: PC-3 prostate
[10] = tested on: ACHN renal
[11] = tested on: RXF 393 renal
[12] = tested on: SK-MEL-28 melanoma
[13] = tested on: SF-295 CNS
[14] = tested on: MDA-MB-435
[15] = tested on: UACC-62 melanoma
[16] = tested on: A549 NSCLC
[17] = tested on: TK-10 renal
[18] = tested on: SK-OV-3 ovarian
[19] = tested on: T-47D breast
[20] = tested on: BT-549 breast
[21] = tested on: HOP-62 NSCLC
[22] = tested on: 786-0 renal
[23] = tested on: OVCAR-8 ovarian
[24] = tested on: SF-539 CNS
[25] = tested on: DU-145 prostate
[26] = tested on: SW-620 colon
[27] = tested on: SN12C renal
[28] = tested on: OVCAR-3 ovarian
[29] = tested on: UACC-257 melanoma
[30] = tested on: KM12 colon
[31] = tested on: MCF7 breast
[32] = tested on: HOP-92 NSCLC
[33] = tested on: MALME-3M melanoma
[34] = tested on: HT29 colon
[35] = tested on: RPMI-8226 leukemia
[36] = tested on: SNB-75 CNS
[37] = tested on: MDA-MB-231 breast
[38] = tested on: MOLT-4 leukemia
[39] = tested on: A498 renal
[40] = tested on: SF-268 CNS
[41] = tested on: HCT-116 colon
[42] = tested on: OVCAR-4 ovarian
[43] = tested on: LOX IMVI melanoma
[44] = tested on: COLO 205 colon
[45] = tested on: HCC-2998 colon
[46] = tested on: SK-MEL-5 melanoma
[47] = tested on: HCT-15 colon
[48] = tested on: HS 578T breast
[49] = tested on: IGROV1 ovarian
[50] = tested on: NCI-H522 lung
[51] = tested on: M14 melanoma
[52] = tested on: OVCAR-5 ovarian
[53] = tested on: SNB-19 CNS
[54] = tested on: EKVX NSCLC
[55] = tested on: UO-31 renal
[56] = tested on: NCI-H226 lung
[57] = tested on: HL-60(TB) leukemia

## C[C@@]1([C@H](OC(=O)c2ccccc2)C(N)=O)CO1
[1]
  GI50: 19.7 µM
  TGI: > 100 µM
[2]
  GI50: 22.1 µM
  TGI: > 100 µM
[3]
  GI50: 20.6 µM
  TGI: 53 µM
[4]
  GI50: 20.2 µM
  TGI: 61.5 µM
[5]
  GI50: 10.7 µM
  TGI: 31.5 µM
[6]
  GI50: 17.1 µM
  TGI: 37.5 µM
[7]
  GI50: 5.67 µM
  TGI: > 100 µM
[8]
  GI50: 16.4 µM
  TGI: 44.3 µM
[9]
  GI50: 16.6 µM
  TGI: 52.1 µM
[10]
  GI50: 10.5 µM
  TGI: 34.3 µM
[11]
  GI50: 18 µM
  TGI: 43.5 µM
[12]
  GI50: 20.6 µM
  TGI: 53.2 µM
[13]
  GI50: 16.9 µM
  TGI: 41.5 µM
[14]
  GI50: 17.8 µM
  TGI: 36 µM
[15]
  GI50: 14.9 µM
  TGI: 29.4 µM
[16]
  GI50: 24 µM
  TGI: 61.4 µM
[17]
  GI50: 19.8 µM
  TGI: 73.7 µM
[18]
  GI50: 28.3 µM
  TGI: 66 µM
[19]
  GI50: 30.4 µM
  TGI: 83.3 µM
[20]
  GI50: 20.8 µM
  TGI: 48.5 µM
[21]
  GI50: 21.8 µM
  TGI: 64.9 µM
[22]
  GI50: 22.6 µM
  TGI: 59.4 µM
[23]
  GI50: 20.1 µM
  TGI: 46.1 µM
[24]
  GI50: 21.6 µM
  TGI: 55.7 µM
[25]
  GI50: 27.2 µM
  TGI: > 100 µM
[26]
  GI50: 22.6 µM
  TGI: 95.2 µM
[27]
  GI50: 13.7 µM
  TGI: 33.9 µM
[28]
  GI50: 16.4 µM
  TGI: 35.4 µM
[29]
  GI50: 43.7 µM
  TGI: > 100 µM
[30]
  GI50: 33.4 µM
  TGI: > 100 µM
[31]
  GI50: 32 µM
  TGI: > 100 µM
[32]
  GI50: 14.8 µM
  TGI: 42.1 µM
[33]
  GI50: 28.3 µM
  TGI: 58 µM
[34]
  GI50: 27 µM
  TGI: > 100 µM
[35]
  GI50: 26.2 µM
  TGI: > 100 µM
[36]
  GI50: 22.8 µM
  TGI: 50.6 µM
[37]
  GI50: 14.9 µM
  TGI: 41.8 µM
[38]
  GI50: 35.7 µM
  TGI: > 100 µM
[39]
  GI50: 33.8 µM
  TGI: 88.3 µM
[40]
  GI50: 19.4 µM
  TGI: 50 µM
[41]
  GI50: 17.5 µM
  TGI: 58.6 µM
[42]
  GI50: 37.6 µM
  TGI: > 100 µM
[43]
  GI50: 4.21 µM
  TGI: 24.5 µM
[44]
  GI50: 22.5 µM
  TGI: 43 µM
[45]
  GI50: 20.5 µM
  TGI: 40.3 µM
[46]
  GI50: 15.1 µM
  TGI: 31.3 µM
[47]
  GI50: 20.8 µM
  TGI: 54.9 µM
[48]
  GI50: 34.4 µM
  TGI: 92.7 µM
[49]
  GI50: 19.6 µM
  TGI: > 100 µM
[50]
  GI50: 22.2 µM
  TGI: 76.5 µM
[51]
  GI50: 22.1 µM
  TGI: 53.9 µM
[52]
  GI50: 34.1 µM
  TGI: 85.9 µM
[53]
  GI50: 30.5 µM
  TGI: 93.6 µM
[54]
  GI50: 24.2 µM
  TGI: 62.4 µM
[55]
  GI50: 20.2 µM
  TGI: 51.8 µM

## COc1ccc2nc3cc(Cl)ccc3c(NCCCNCCO)c2c1
[1]
  GI50: 0.476 µM
  TGI: 2.28 µM
[56]
  GI50: 1.16 µM
  TGI: 3.12 µM
[2]
  GI50: 1.32 µM
  TGI: 2.79 µM
[3]
  GI50: 0.275 µM
  TGI: 1.2 µM
[4]
  GI50: 0.499 µM
  TGI: 2.48 µM
[5]
  GI50: 0.816 µM
  TGI: 3.55 µM
[6]
  GI50: 0.455 µM
  TGI: 2.12 µM
[7]
  GI50: 0.383 µM
  TGI: 2.4 µM
[8]
  GI50: 4.03 µM
  TGI: 19.8 µM
[57]
  GI50: 0.613 µM
  TGI: 2.64 µM
[9]
  GI50: 0.544 µM
  TGI: 2.54 µM
[10]
  GI50: 0.403 µM
  TGI: 3.25 µM
[11]
  GI50: 0.58 µM
  TGI: 2.22 µM
[12]
  GI50: 1.38 µM
  TGI: 3.06 µM
[13]
  GI50: 0.523 µM
  TGI: 2.32 µM
[14]
  GI50: 0.522 µM
  TGI: 1.88 µM
[15]
  GI50: 0.807 µM
  TGI: 2.54 µM
[16]
  GI50: 0.378 µM
  TGI: 2.06 µM
[17]
  GI50: 0.587 µM
  TGI: 3.2 µM
[18]
  GI50: 0.635 µM
  TGI: 3.33 µM
[19]
  GI50: 0.625 µM
  TGI: 3.41 µM
[20]
  GI50: 1.89 µM
  TGI: 3.71 µM
[21]
  GI50: 0.393 µM
  TGI: 2.14 µM
[22]
  GI50: 0.531 µM
  TGI: 1.96 µM
[23]
  GI50: 0.415 µM
  TGI: 2.45 µM
[24]
  GI50: 0.508 µM
  TGI: 2.35 µM
[25]
  GI50: 0.48 µM
  TGI: 2.77 µM
[26]
  GI50: 0.304 µM
  TGI: 2.68 µM
[27]
  GI50: 0.371 µM
  TGI: 2.48 µM
[28]
  GI50: 0.588 µM
  TGI: 2.86 µM
[29]
  GI50: 1.82 µM
  TGI: 3.48 µM
[30]
  GI50: 0.498 µM
  TGI: 2.81 µM
[31]
  GI50: 0.355 µM
  TGI: 2.06 µM
[32]
  GI50: 1.2 µM
  TGI: 3.45 µM
[33]
  GI50: 1.21 µM
  TGI: 2.82 µM
[34]
  GI50: 0.292 µM
  TGI: 1.41 µM
[35]
  GI50: 0.497 µM
  TGI: 2.74 µM
[36]
  GI50: 0.744 µM
  TGI: 2.26 µM
[37]
  GI50: 0.47 µM
  TGI: 2.71 µM
[38]
  GI50: 0.413 µM
  TGI: 3.4 µM
[39]
  GI50: 0.197 µM
  TGI: 1.5 µM
[40]
  GI50: 0.577 µM
  TGI: 2.66 µM
[41]
  GI50: 0.326 µM
  TGI: 1.43 µM
[42]
  GI50: 0.484 µM
  TGI: 2.87 µM
[43]
  GI50: 0.294 µM
  TGI: 1.12 µM
[44]
  GI50: 0.241 µM
  TGI: 1.14 µM
[45]
  GI50: 0.609 µM
  TGI: 2.17 µM
[46]
  GI50: 1.55 µM
  TGI: 2.93 µM
[47]
  GI50: 0.577 µM
  TGI: 3.15 µM
[48]
  GI50: 1.48 µM
  TGI: 5.62 µM
[49]
  GI50: 0.577 µM
  TGI: 3.18 µM
[50]
  GI50: 0.379 µM
  TGI: 1.63 µM
[51]
  GI50: 0.562 µM
  TGI: 2.16 µM
[52]
  GI50: 0.531 µM
  TGI: 3.28 µM
[53]
  GI50: 0.5 µM
  TGI: 3.79 µM
[54]
  GI50: 1.17 µM
  TGI: 4.19 µM
[55]
  GI50: 0.602 µM
  TGI: 3.19 µM
